Assay: logP determination by HPLC (EEC Directive 79/831 Annex V.A8), LC-MS
[1] = * acidic range, pH 2.7, 0.1% aqueous formic acid/acetonitrile
[2] = pH 2.7, log P (pH2.7), pH 2.7, value given in the preparation text
[3] = pH 2.7, logP, * acidic range, pH 2.7, 0.1% aqueous formic acid/acetonitrile

With `Cc1cc(C(F)(F)F)nn1CC(=O)N1CCC(c2nc(CSC3=NOC(c4ccccc4)C3)cs2)CC1` (racemic) [Compound I-88] the logP [1] was 3.52*.

With `Cc1cc(C(F)(F)F)nn1CC(=O)N1CCC(c2nc(CSc3nnnn3-c3ccccc3)cs2)CC1` [Compound I-4, 2-[5-Methyl-3-(trifluoromethyl)-1H-pyrazol-1-yl]-1-[4-(4-{[(1-phenyl-1H-tetrazol-5-yl)sulphanyl]methyl}-1,3-thiazol-2-yl)piperidin-1-yl]ethanone] the chromatographic logP [2] was 3.25, the chromatographic logP [3] was 3.25 and the chromatographic logP (pH 7.8, logP, ** neutral range, pH 7.8, 0.001 molar aqueous ammonium bicarbonate/acetonitrile) was 3.26.

For `Cc1cc(C(F)(F)F)nn1CC(=O)N1CCC(c2nc(CSc3cccc4cccnc34)cs2)CC1` [Compound I-5, 1-(4-{4-[(Quinolin-8-ylsulphanyl)methyl]-1,3-thiazol-2-yl}piperidin-1-yl)-2-[5-methyl-3-(trifluoromethyl)-1H-pyrazol-1-yl]ethanone], the chromatographic logP [2] was 3 and the chromatographic logP [3] was 3.

For `Cc1cc(C(F)(F)F)nn1CC(=O)N1CCC(c2nc(C[S+]([O-])C3CCCCC3)cs2)CC1` (centres unmarked) [Compound I-11, 1-(4-{4-[(Cyclohexylsulphinyl)methyl]-1,3-thiazol-2-yl}piperidin-1-yl)-2-[5-methyl-3-(trifluoromethyl)-1H-pyrazol-1-yl]ethanone], the chromatographic logP [2] was 2.55 and the chromatographic logP [3] was 2.55.

In the case of `Cc1cc(C(F)(F)F)nn1CC(=O)N1CCC(c2nc(C[S+]([O-])c3cccc4cccnc34)cs2)CC1` (centres unmarked) [Compound I-12, 1-(4-{4-[(Quinolin-8-ylsulphinyl)methyl]-1,3-thiazol-2-yl}piperidin-1-yl)-2-[5-methyl-3-(trifluoromethyl)-1H-pyrazol-1-yl]ethanone], the chromatographic logP [2] is reported as 2.48 and the chromatographic logP [3] is reported as 2.48.

`Cc1cc(C(F)(F)F)nn1CC(=O)N1CCC(c2nc(C[S+]([O-])c3nnnn3-c3ccccc3)cs2)CC1` (centres unmarked) [Compound I-14, 2-[5-Methyl-3-(trifluoromethyl)-1H-pyrazol-1-yl]-1-[4-(4-{[(1-phenyl-1H-tetrazol-5-yl)sulphinyl]methyl}-1,3-thiazol-2-yl)piperidin-1-yl]ethanone] showed a chromatographic logP [2] of 2.69 and a chromatographic logP [3] of 2.69.

With `Cc1ccc(C)c(NC(=O)N2CCC(c3nc(CSC4CCCCC4)cs3)CC2)c1` [Compound I-16] the logP [1] was 4.38*.

For `O=C(Cn1nc(C(F)F)cc1C(F)F)N1CCC(c2nc(CSc3ccccc3-c3ccccc3)cs2)CC1` [Compound I-19], the logP [1] was 4.36*.

With `Fc1ccc(F)c(NC(=S)N2CCC(c3nc(CSc4nnnn4-c4ccccc4)cs3)CC2)c1` [Compound I-23] the logP [1] was 3.26*.

In the case of `COc1ccc(OC)c(NC(=O)N2CCC(c3nc(CSc4nnnn4-c4ccccc4)cs3)CC2)c1` [Compound I-25], the logP [1] is reported as 3.26*.

For `O=C(Cn1nc(C(F)(F)F)cc1C(F)(F)F)N1CCC(c2nc(CS(=O)(=O)c3nnnn3-c3ccccc3)cs2)CC1` [Compound I-26], the logP [1] was 3.59*.

For `Cc1ccc(C)c(CC(=O)N2CCC(c3nc(CSC45CC6CC(CC(C6)C4)C5)cs3)CC2)c1` [Compound I-27], the logP [1] was 5.99*.

For `Cc1ccc(C)c(CC(=O)N2CCC(c3nc(CSc4cccc5ccccc45)cs3)CC2)c1` [Compound I-43], the logP [1] was 4.86*.

For `Cc1ccc(C)c(NC(=O)N2CCC(c3nc(CSc4cccc5ccccc45)cs3)CC2)c1` [Compound I-47], the logP [1] was 4.37*.

For `S=C(Nc1cc(Cl)ccc1Cl)N1CCC(c2nc(CSc3nnnn3-c3ccccc3)cs2)CC1` [Compound I-52], the logP [1] was 3.77*.

In the case of `O=C(Nc1cc(F)ccc1F)N1CCC(c2nc(CSc3nnnn3-c3ccccc3)cs2)CC1` [Compound I-56], the logP [1] is reported as 3.27*.

For `O=C(Cn1nc(C(F)F)cc1C(F)F)N1CCC(c2nc(CSC3=NOC(c4ccccc4)C3)cs2)CC1` (centres unmarked) [Compound I-58, 2-[3,5-Bis(difluoromethyl)-1H-pyrazol-1-yl]-1-{4-[4-({[5-phenyl-4,5-dihydro-1,2-oxazol-3-yl]sulphanyl}methyl)-1,3-thiazol-2-yl]piperidin-1-yl}ethanone], the chromatographic logP [2] was 3.4 and the chromatographic logP [3] was 3.4.

In the case of `Cc1cc(C(F)(F)F)nn1CC(=O)N1CCC(c2nc(CSc3nccn3-c3ccccc3)cs2)CC1` [Compound I-61], the logP [1] is reported as 2.22*.

In the case of `Cc1ccc(F)cc1NC(=O)N1CCC(c2nc(CSc3nnnn3-c3ccccc3)cs2)CC1` [Compound I-63], the logP [1] is reported as 3.2*.

For `O=C(Cn1nc(C(F)F)cc1C(F)F)N1CCC(c2nc(CSc3nccn3-c3ccccc3)cs2)CC1` [Compound I-65], the logP [1] was 2.13*.

With `Fc1ccc(Br)c(NC(=S)N2CCC(c3nc(CSc4nnnn4-c4ccccc4)cs3)CC2)c1` [Compound I-66] the logP [1] was 3.46*.

For `Cc1cc(C(F)(F)F)nn1CC(=O)N1CCC(c2nc(CSc3ccccc3-c3ccccc3)cs2)CC1` [Compound I-69], the logP [1] was 4.49*.

In the case of `Cc1noc(C)c1NC(=O)N1CCC(c2nc(CSc3nnnn3-c3ccccc3)cs2)CC1` [Compound I-75], the logP [1] is reported as 2.22*.

In the case of `O=C(Nc1cc(C(F)(F)F)ccc1Cl)N1CCC(c2nc(CSc3nnnn3-c3ccccc3)cs2)CC1` [Compound I-76], the logP [1] is reported as 4.2*.

For `COc1ccc(Cl)cc1NC(=O)N1CCC(c2nc(CSc3nnnn3-c3ccccc3)cs2)CC1` [Compound I-79], the logP [1] was 3.8*.

In the case of `Cc1noc(C)c1NC(=S)N1CCC(c2nc(CSc3nnnn3-c3ccccc3)cs2)CC1` [Compound I-99], the logP [1] is reported as 2.7*.

Work on `ClC1=NOC(c2ccccc2)C1` (centres unmarked) [Compound X-1, 3-Chloro-5-phenyl-4,5-dihydro-1,2-oxazole] yielded a chromatographic logP [2] of 2.36.

In the case of `CC(C)(C)OC(=O)N1CCC(c2nc(CSc3cccc4ccccc34)cs2)CC1` [IV-1, tert-Butyl 4-{4-[(1-naphthylsulphanyl)methyl]-1,3-thiazol-2-yl}piperidine-1-carboxylate], the chromatographic logP [2] is reported as 5.33.

With `CC(C)(C)OC(=O)N1CCC(c2nc(CSC34CC5CC(CC(C5)C3)C4)cs2)CC1` [IV-2, tert-Butyl 4-(4-{[(3S,5S,7S)-adamantan-1-ylsulphanyl]methyl}-1,3-thiazol-2-yl)piperidine-1-carboxylate] the chromatographic logP [2] was 6.66.

`CC(C)(C)OC(=O)N1CCC(c2nc(CSC3CCCCC3)cs2)CC1` [IV-3, tert-Butyl 4-{4-[(cyclohexylsulphanyl)methyl]-1,3-thiazol-2-yl}piperidine-1-carboxylate] gave a chromatographic logP [2] of 5.45.

`CC(C)(C)OC(=O)N1CCC(c2nc(CSc3nnnn3-c3ccccc3)cs2)CC1` [IV-4, tert-Butyl 4-(4-{[(1-phenyl-1H-tetrazol-5-yl)sulphanyl]methyl}-1,3-thiazol-2-yl)piperidine-1-carboxylate] showed a chromatographic logP [2] of 3.91.

Work on `CC(C)(C)OC(=O)N1CCC(c2nc(CSc3cccc4cccnc34)cs2)CC1` [IV-5, tert-Butyl 4-{4-[(quinolin-8-ylsulphanyl)methyl]-1,3-thiazol-2-yl}piperidine-1-carboxylate] yielded a chromatographic logP [2] of 3.71.

With `CC(C)(C)OC(=O)N1CCC(c2nc(CSC3=NOC(c4ccccc4)C3)cs2)CC1` (centres unmarked) [IV-6, tert-Butyl 4-[4-({[5-phenyl-4,5-dihydro-1,2-oxazol-3-yl]sulphanyl}methyl)-1,3-thiazol-2-yl]piperidine-1-carboxylate] the chromatographic logP [2] was 4.25.

`CC(C)(C)OC(=O)N1CCC(c2nc(CI)cs2)CC1` [VI-1, tert-Butyl 4-[4-(iodomethyl)-1,3-thiazol-2-yl]piperidine-1-carboxylate] gave a chromatographic logP [2] of 3.71.

From patent US20130090476A1, “Thiazolylpiperidine Derivatives as Fungicides” (priority 2009, published 2013)
